Test results as given in ChEMBL document CHEMBL3885861, “Open TG-GATES”.

Organism: Rattus norvegicus
Assay: Open TG-GATES - Regimen: Single
Type: toxicity, organism-based, Sprague-Dawley
Parameters: regimen Single, gender Male, age 6 weeks
Settings: in vivo, po, 1000 mg/kg, route gavage, dose level Middle; for APTT / Bas / Eos / Fbg / Hb / Ht / Lym / MCH / MCHC / MCV / Mono / Neu / PT / Plat / RBC / Ret / WBC: tissue Blood; for KIDNEY_L / KIDNEY_R / KIDNEY_TOTAL: tissue Kidney; for LIVER: tissue Liver; for A/G / ALP / ALT / AST / BUN / CRE / Ca / Cl / DBIL / GLC / IP / K / LDH / Na / PL / RALB / TBIL / TC / TG / TP / gamma-GTP: tissue Plasma

## CCN1CCCC1CNC(=O)c1cc(S(N)(=O)=O)ccc1OC (stereo unspecified) [SULPIRIDE]
9 h
  TERMINAL_BW: 201.7 g
  APTT: 17.2 s
  Bas: 0%
  Eos: 1%
  Fbg: 308 mg/dL
  Hb: 13.7 g/dL
  Ht: 43%
  Lym: 71.2%
  MCH: 20.7 pg
  MCHC: 31.8%
  MCV: 65 fL
  Mono: 3.6%
  Neu: 23.8%
  PT: 13.3 s
  Plat: 131.4 x10_4/uL
  RBC: 661 x10_4/ul
  Ret: 7.7%
  WBC: 64.3 x10_2/uL
  KIDNEY_L: 0.9 g
  KIDNEY_R: 0.9 g
  KIDNEY_TOTAL: 1.8 g
  LIVER: 8.3 g
  A/G: 0.9
  ALP: 1435.8 IU/L
  ALT: 28.6 IU/L
  AST: 63.2 IU/L
  BUN: 7.6 mg/dL
  CRE: 0.2 mg/dL
  Ca: 10.7 mg/dL
  Cl: 107.6 meq/L
  DBIL: 0.002 mg/dL
  GLC: 178.2 mg/dL
  IP: 9.7 mg/dL
  K: 4 meq/L
  LDH: 106.2 IU/L
  Na: 141.6 meq/L
  PL: 151 mg/dL
  RALB: 2.5 g/dL
  TBIL: 0.066 mg/dL
  TC: 83.8 mg/dL
  TG: 65.2 mg/dL
  TP: 5.3 g/dL
  gamma-GTP: 1.2 IU/L
24 h
  TERMINAL_BW: 214.6 g
  APTT: 17.3 s
  Bas: 0%
  Eos: 1%
  Fbg: 290.8 mg/dL
  Hb: 13.9 g/dL
  Ht: 42.1%
  Lym: 77.8%
  MCH: 20.7 pg
  MCHC: 32.9%
  MCV: 62.9 fL
  Mono: 2.4%
  Neu: 18.4%
  PT: 12.8 s
  Plat: 123 x10_4/uL
  RBC: 670.2 x10_4/ul
  Ret: 6.7%
  WBC: 66.8 x10_2/uL
  KIDNEY_L: 0.9 g
  KIDNEY_R: 0.9 g
  KIDNEY_TOTAL: 1.9 g
  LIVER: 9.4 g
  A/G: 0.9
  ALP: 1599.4 IU/L
  ALT: 46 IU/L
  AST: 67.6 IU/L
  BUN: 17.2 mg/dL
  CRE: 0.2 mg/dL
  Ca: 11.2 mg/dL
  Cl: 105.2 meq/L
  DBIL: 0.018 mg/dL
  GLC: 178.8 mg/dL
  IP: 8.6 mg/dL
  K: 4.4 meq/L
  LDH: 145.4 IU/L
  Na: 142 meq/L
  PL: 157.6 mg/dL
  RALB: 2.6 g/dL
  TBIL: 0.056 mg/dL
  TC: 83 mg/dL
  TG: 112.4 mg/dL
  TP: 5.7 g/dL
  gamma-GTP: 1 IU/L
